Results published in patent publication US20190321324A1, “QUATERNARY AMINE ANTIBIOTIC THERAPEUTICS” (BOARD OF REGENTS, THE UNIVERSITY OF TEXAS SYSTEM, priority 2016, published 2019).
In brackets after ≈: the same amount, converted by molar mass. Counter-ions that a name gives are not always drawn. Like-named read-outs stand apart in the source and are kept apart here.

Legend:
A. baumannii = A. baumannii MIC of clinically used QACs; assay type: cell-based, Acinetobacter baumannii; details: for MIC: unit assumed; for Effect of ribosomal mutations on MIC (in words): BAC resistant mutants, S11 and L24 (Mutants 1 and 4); for Prevention of growth (in words): antibiotic resistant and susceptible A. baumannii
Description: (§1) The antimicrobial activity of three QACs that have been approved for human use; Bretylium tosylate, Clofilium tosylate, and Otilonium bromide, were tested (FIG. 1). The length of the hydrocarbon tail on BAC is known to strongly influence its behavior. Clofilium tosylate and Otilonium bromide both have hydrocarbon tails that are hypothesized to allow cell envelope penetration. […] Similar activity was determine for these three compounds in S. aureus (Table 2)
BAC, Bretylium tosylate, Clofilium tosylate, and Otilonium bromide are all QACs but with different structures. […] Bretylium tosylate, Clofilium tosylate, and Otilonium bromide were tested on BAC resistant mutants representing mutations in ribosomal proteins S11, L23, L24 and the UTR of the ribosomal operon. […] The MIC to Otilonium bromide was not affected in these mutants.

A. baumannii lon mutant = assay: Sensitivity of A. baumannii lon mutant to Otilonium bromide treatment; assay type: cell-based, Acinetobacter baumannii
S. aureus = S. aureus MIC of clinically used QACs; assay type: cell-based, Staphylococcus aureus; details: unit assumed
Description: as §1

C. difficile = C. difficile minimal bactericidal assay (MBC); assay type: cell-based, Clostridium difficile; details: Clostridioides difficile, 20 h, 20 h at 37° C., anaerobic
Description: Activity of Otilonium bromide was also tested using two strains of C. difficile, 43255 and 630 (MDR). The minimal bactericidal assay was performed using 5×10^5 C. difficile bacteria where incubated with vancomycin or OB at the indicated concentrations for 20 h at 37° C. in an anaerobic chamber. The total volume per well in BHIS medium was 100 μl and 5 μL was spotted on RCM medium and plates were incubated for 24 h. The MBC is identified as the concentration of compound the reduced cfu to single or no numbers.

Compound: CCCCCCCCOc1ccccc1C(=O)Nc1ccc(C(=O)OCC[N+](C)(CC)CC)cc1.[Br-] [Otilonium bromide]
- MIC (A. baumannii; BAC resistant Mutant 1 (20)): 16 µg/mL
- MIC (A. baumannii; BAC resistant Mutant 4 (23)): 16 µg/mL
- MIC (A. baumannii; BAC resistant Mutant 7 (19)): 16 µg/mL
- MIC (A. baumannii; BAC resistant Mutant 8 (3)): 16 µg/mL
- Effect of ribosomal mutations on MIC (in words) (A. baumannii): not affected
- Prevention of growth (in words) (A. baumannii): prevent growth
- MIC compared with BAC (A. baumannii; strain 17978): equivalent to that of BAC
- MIC (A. baumannii; strain 17978): 16 µg/mL
- MIC (A. baumannii; strain AYE (MDR)): 16 µg/mL
- Sensitivity of lon mutant (in words) (A. baumannii lon mutant): highly sensitized
- MIC (S. aureus; strain MU50 (MDR)): 4 µg/mL
- MIC (S. aureus; strain Newman): 2 µg/mL
- MBC (C. difficile; strain 630 (MDR), read-out: MBC): 2 µg/mL
- MBC (C. difficile; strain 43255, read-out: MBC): 1 µg/mL

Compound: Clofilium tosylate
- MIC (A. baumannii; BAC resistant Mutant 7 (19)): 256 µg/mL
- MIC (A. baumannii; BAC resistant Mutant 8 (3)): 256 µg/mL
- Effect of ribosomal mutations on MIC (in words) (A. baumannii): increased resistance
- Prevention of growth (in words) (A. baumannii): prevent growth
- MIC (A. baumannii; strain 17978): 128 µg/mL
- MIC (A. baumannii; strain AYE (MDR)): 128 µg/mL
- MIC (S. aureus; strain MU50 (MDR)): 32 µg/mL
- MIC (S. aureus; strain Newman): 16 µg/mL

Compound: CC[N+](C)(C)Cc1ccccc1Br [Bertylium tosylate, Bretylium tosylate]
- MIC (A. baumannii; BAC resistant Mutant 1 (20)): > 256 µg/mL
- MIC (A. baumannii; BAC resistant Mutant 4 (23)): > 256 µg/mL
- MIC (A. baumannii; BAC resistant Mutant 7 (19)): > 256 µg/mL
- MIC (A. baumannii; BAC resistant Mutant 8 (3)): > 256 µg/mL
- Prevention of growth (in words) (A. baumannii): did not show activity
- MIC (A. baumannii; strain 17978): > 256 µg/mL
- MIC (A. baumannii; strain AYE (MDR)): > 256 µg/mL
- MIC (S. aureus; strain MU50 (MDR)): > 256 µg/mL
- MIC (S. aureus; strain Newman): > 256 µg/mL

Compound: CN[C@H](CC(C)C)C(=O)N[C@H]1C(=O)N[C@@H](CC(N)=O)C(=O)N[C@H]2C(=O)N[C@H]3C(=O)N[C@H](C(=O)N[C@H](C(=O)O)c4cc(O)cc(O)c4-c4cc3ccc4O)[C@H](O)c3ccc(c(Cl)c3)Oc3cc2cc(c3O[C@@H]2O[C@H](CO)[C@@H](O)[C@H](O)[C@H]2O[C@H]2C[C@](C)(N)[C@H](O)[C@H](C)O2)Oc2ccc(cc2Cl)[C@H]1O [Vancomycin]
- MBC (C. difficile; strain 630 (MDR)): ~2 µg/mL (≈ 1.38 µM)
- MBC (C. difficile; strain 43255): 1 µg/mL (≈ 0.69 µM)
